Measured values as given in ChEMBL document CHEMBL3632489, “Inhibitory kinetics of novel 2,3-dihydro-1H-inden-1-one chalcone-like derivatives on mushroom tyrosinase” (Bioorg Med Chem Lett, 2015).
Active and inactive are the calls of the source. The calls are words filed in the database; no cut-off is given here.

Columns and labels:
[1] = target: T1, Tyrosinase (Agaricus bisporus) (UniProt O42713); test: Potency index, ratio of IC50 for kojic acid to IC50 for test compound for inhibition of mushroom tyrosinase diphenolase activity
T1 sequence (whole entry): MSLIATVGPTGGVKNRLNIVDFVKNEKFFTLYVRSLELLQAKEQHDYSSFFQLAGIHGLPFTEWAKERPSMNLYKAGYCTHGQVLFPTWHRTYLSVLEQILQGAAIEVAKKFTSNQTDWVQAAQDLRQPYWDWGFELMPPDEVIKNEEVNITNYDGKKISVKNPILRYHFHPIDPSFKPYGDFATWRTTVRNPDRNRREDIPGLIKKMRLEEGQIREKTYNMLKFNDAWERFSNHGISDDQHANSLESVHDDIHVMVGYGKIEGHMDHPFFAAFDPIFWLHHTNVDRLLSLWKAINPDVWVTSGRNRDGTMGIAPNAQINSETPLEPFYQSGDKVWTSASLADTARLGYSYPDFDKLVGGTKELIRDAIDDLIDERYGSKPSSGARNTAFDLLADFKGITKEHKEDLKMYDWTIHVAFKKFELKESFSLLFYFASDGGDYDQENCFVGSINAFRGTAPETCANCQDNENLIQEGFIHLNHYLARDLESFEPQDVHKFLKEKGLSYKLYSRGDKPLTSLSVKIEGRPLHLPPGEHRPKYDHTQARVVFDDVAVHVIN

[2] = target: T1, Tyrosinase (Agaricus bisporus); test: Reversible inhibition of mushroom tyrosinase diphenolase activity using L-DOPA as substrate at 0.25 to 2.0 uM
[3] = target: T1, Tyrosinase (Agaricus bisporus); test: Competitive inhibition of mushroom tyrosinase diphenolase activity using L-DOPA as substrate at 1.25 to 20 uM by Lineweaver Burk plot analysis
Tyrosinase [4] = target: T2, Tyrosinase (Agaricus bisporus, UniProt O42713)
T2 sequence (O42713 whole entry): T1 sequence (whole entry)

Tyrosinase [5] = target: T2, Tyrosinase; remark: listed apart in the source
Description: Competitive inhibition of mushroom tyrosinase polyphenol oxidase activity using L-DOPA as substrate by Dixon plot analysis

[6] = target: T1, Tyrosinase (Agaricus bisporus); test: Inhibition of mushroom tyrosinase diphenolase activity using L-DOPA as substrate

Ratio IC50 [1]	inhibition [2]	inhibition [3]	IC50 (Tyrosinase [4])	Ki (Tyrosinase [5])	inhibition [6]	Compound
3.35	Active	Active	8.2 µM	8.7 µM	Dose-dependent effect	O=C1/C(=C\c2ccc(O)c(O)c2)Cc2ccccc21
2.23	Active	Active	12.3 µM	10.3 µM	Dose-dependent effect	O=C1/C(=C\c2ccc(O)cc2O)Cc2ccccc21
